Laboratory results from patent US20220056019A1, “FARNESOID X RECEPTOR AGONISTS AND USES THEREOF” (Metacrine, Inc., priority 2018, published 2022).

Biological target: T1, hFXR (Homo sapiens, UniProt Q96RI1)
T1 construct: expressed in transfected cells; host or cells: CV-1 cells
T1 sequence (Q96RI1 1-486): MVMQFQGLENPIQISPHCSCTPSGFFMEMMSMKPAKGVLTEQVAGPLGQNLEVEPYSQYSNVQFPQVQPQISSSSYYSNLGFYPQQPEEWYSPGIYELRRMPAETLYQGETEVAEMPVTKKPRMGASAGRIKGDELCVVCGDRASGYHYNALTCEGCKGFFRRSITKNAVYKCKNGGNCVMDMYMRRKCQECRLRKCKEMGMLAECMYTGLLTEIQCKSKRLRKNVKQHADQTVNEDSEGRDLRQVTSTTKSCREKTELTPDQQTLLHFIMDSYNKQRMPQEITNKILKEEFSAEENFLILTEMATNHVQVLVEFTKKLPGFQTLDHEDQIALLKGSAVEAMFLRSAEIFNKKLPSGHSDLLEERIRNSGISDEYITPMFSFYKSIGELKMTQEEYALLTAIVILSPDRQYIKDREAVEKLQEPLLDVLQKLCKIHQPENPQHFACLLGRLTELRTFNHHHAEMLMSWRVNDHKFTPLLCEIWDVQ
T1 sequence (P19793 1-462 partner): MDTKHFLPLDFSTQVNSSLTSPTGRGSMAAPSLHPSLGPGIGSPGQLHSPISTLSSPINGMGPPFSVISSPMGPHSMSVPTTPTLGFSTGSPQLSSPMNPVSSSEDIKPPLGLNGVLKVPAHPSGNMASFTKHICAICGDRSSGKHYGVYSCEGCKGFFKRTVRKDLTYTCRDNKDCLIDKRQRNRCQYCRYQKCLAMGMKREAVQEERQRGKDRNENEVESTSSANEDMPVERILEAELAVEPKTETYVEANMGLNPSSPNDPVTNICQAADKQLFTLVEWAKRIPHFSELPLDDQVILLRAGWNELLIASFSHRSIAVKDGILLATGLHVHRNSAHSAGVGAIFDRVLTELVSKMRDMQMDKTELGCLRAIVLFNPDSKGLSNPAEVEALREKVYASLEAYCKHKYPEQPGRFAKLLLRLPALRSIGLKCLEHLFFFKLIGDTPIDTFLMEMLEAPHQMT
Test: In Vitro FXR Assay (TK): TK-ECRE-luc reporter in transfected CV-1 cells
Assay type: cell-based
Conditions: 18 hrs incubation, luminescence
How it was run: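 First, CV-1 cells were grown overnight in stripped-serum DMEM, then transfected for 18 h with expression plasmids for human FXR and RXR plus a TK-ECRE luciferase reporter and YFP. Next, serially diluted compounds were applied for 18 h, and lysates were read by luminescence.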

EC50 [nM] | Compound
≤ 50 | COc1ccc([C@H]2CC[C@H](CN(c3cc(-c4cnn(C(C)C)c4)ccn3)C(=O)[C@H]3CC[C@H](OC(=O)NCC(C)(C)O)CC3)CC2)cc1C [Compound 2.04, trans-4-((4-(1-Isopropyl-1H-pyrazol-4-yl)pyridin-2-yl) ((trans-4-(4-methoxy-3-methylphenyl)cyclohexyl)methyl)carbamoyl) cyclohexyl(2-hydroxy-2-methylpropyl)carbamate]
≤ 50 | COc1ccc(C23CCC(CN(c4cc(-c5cnn(C(C)C)c5)ccn4)C(=O)[C@H]4CC[C@H](OC(=O)N5CCOCC5)CC4)(CC2)CC3)cc1C [Compound 4.14, 4-((4-(1-Isopropyl-1H-pyrazol-4-yl)pyridin-2-yl)((4-(4-methoxy-3-methylphenyl)bicyclo [2.2.2]octan-1-yl)methyl)carbamoyl)cyclohexyl morpholine-trans-4-carboxylate]
50 to 1000 | COc1ccc([C@H]2CC[C@H](CN(c3cccc(-c4cnn(C(C)C)c4)c3)C(=O)[C@H]3CC[C@H](NC(=O)C4CC(O)C4)CC3)CC2)cc1C (stereo partly drawn) [Compound 14.02, (1r,4r)-4-(3-Hydroxycyclobutanecarboxamido)-N-(3-(1-isopropyl-1H-pyrazol-4-yl)phenyl)-N-((trans-4-(4-methoxy-3-methylphenyl)cyclohexyl)methyl) cyclohexanecarboxamide]
≤ 50 | COc1ccc(C23CCC(CN(c4cc(-c5cnn(C(C)C)c5)ccn4)C(=O)[C@H]4CC[C@H](OC(=O)N5CCC5)CC4)(CC2)CC3)cc1C [Compound 4.52, 4-((4-(1-Isopropyl-1H-pyrazol-4-yl)pyridin-2-yl) ((4-(4-methoxy-3-methylphenyl)bicyclo [2.2.2]octan-1-yl)methyl)carbamoyl)cyclohexyl trans-azetidine-1-carboxylate]
50 to 1000 | COC(=O)CCC(=O)N[C@H]1CC[C@H](C(=O)N(C[C@H]2CC[C@H](c3ccc(OC)c(C)c3)CC2)c2cccc(-c3cnn(C(C)C)c3)c2)CC1 [Compound 10.04, Methyl 4-((trans-4-((3-(1-isopropyl-1H-pyrazol-4-yl)phenyl)((trans-4-(4-methoxy-3-methylphenyl)cyclohexyl)methyl)carbamoyl)cyclohexyl)amino)-4-oxobutanoate]
≤ 50 | COc1ccc(C23CCC(CN(c4cc(-c5cc(C(C)C)on5)ccn4)C(=O)[C@H]4CC[C@H](OC(=O)N5CC(O)C5)CC4)(CC2)CC3)cc1C [Compound 4.27, 4-((4-(5-Isopropylisoxazol-3-yl)pyridin-2-yl)((4-(4-methoxy-3-methylphenyl)bicyclo[2.2.2]octan-1-yl)methyl)carbamoyl) cyclohexyl 3-hydroxyazetidine-trans-1-carboxylate]
≤ 50 | COc1ccc(C23CCC(CN(c4cc(-c5cnn(C(C)C)c5)ccn4)C(=O)[C@H]4CC[C@H](OC(=O)N5CC(CO)C5)CC4)(CC2)CC3)cc1C [Compound 4.09, 4-((4-(1-Isopropyl-1H-pyrazol-4-yl)pyridin-2-yl)((4-(4-methoxy-3-methylphenyl)bicyclo [2.2.2]octan-1-yl)methyl)carbamoyl)cyclohexyl 3-(hydroxymethyl) azetidine-trans-1-carboxylate]
≤ 50 | CC(C)c1ccc(C23CCC(CN(c4nccc(-c5cnn(C(C)C)c5)n4)C(=O)[C@H]4CC[C@H](OC(=O)N5CC(O)C5)CC4)(CC2)CC3)cc1 [Compound 4.62, 4-((4-(1-Isopropyl-1H-pyrazol-4-yl)pyrimidin-2-yl)((4-(4-isopropylphenyl)bicyclo[2.2.2]octan-1-yl)methyl)carbamoyl)(trans-cyclohexyl) 3-hydroxyazetidine-1-carboxylate]
≤ 50 | COc1ccc([C@H]2CC[C@H](CN(c3cccc(-c4cnn(C(C)C)c4)c3)C(=O)[C@H]3CC[C@H](OC(=O)NCC(F)(F)CO)CC3)CC2)cc1C [Compound 5.02, trans-4-((3-(1-Isopropyl-1H-pyrazol-4-yl)phenyl)(((trans)-4-(4-methoxy-3-methylphenyl)cyclohexyl)methyl)carbamoyl)cyclohexyl (2,2-difluoro-3-hydroxypropyl)carbamate]
≤ 50 | COc1ccc([C@H]2CC[C@H](CN(c3cccc(-c4cnn(C(C)C)c4)c3)C(=O)[C@H]3CC[C@H](OC(=O)N4CCN(C)CC4)CC3)CC2)cc1C#N [Compound 5.08, trans-4-((((trans)-4-(3-Cyano-4-methoxyphenyl)cyclohexyl)methyl)(3-(1-isopropyl-1H-pyrazol-4-yl)phenyl)carbamoyl)cyclohexyl4-methylpiperazine-1-carboxylate]
≤ 50 | COc1ccc([C@H]2CC[C@H](CN(c3cc(-c4cnn(C(C)C)c4)ccn3)C(=O)[C@H]3CC[C@H](OC(=O)N4CC(OC)C4)CC3)CC2)cc1C [Compound 2.18, trans-4-((4-(1-Isopropyl-1H-pyrazol-4-yl)pyridin-2-yl) ((trans-4-(4-methoxy-3-methylphenyl)cyclohexyl)methyl)carbamoyl) cyclohexyl 3-methoxyazetidine-1-carboxylate]
≤ 50 | COc1ccc(C23CCC(CN(c4cc(-c5cnc(C6CC6)s5)ccn4)C(=O)[C@H]4CC[C@H](NC(C)=O)CC4)(CC2)CC3)cc1C [Compound 9.06, (trans)-4-Acetamido-N-(4-(2-cyclopropylthiazol-5-yl)pyridin-2-yl)-N-((4-(4-methoxy-3-methylphenyl)bicyclo[2.2.2]octan-1-yl)methyl)cyclohexanecarboxamide]
≤ 50 | COc1ccc(C23CCC(CN(c4cc(-c5cnn(C(C)C)c5)ccn4)C(=O)[C@H]4CC[C@H](OC(=O)N5CC(N(C)C)C5)CC4)(CC2)CC3)cc1C [Compound 4.12, 4-((4-(1-Isopropyl-1H-pyrazol-4-yl)pyridin-2-yl)((4-(4-methoxy-3-methylphenyl)bicyclo [2.2.2]octan-1-yl)methyl)carbamoyl)cyclohexyl 3-(dimethylamino) azetidine-trans-1-carboxylate]
50 to 1000 | COc1ncc([C@H]2CC[C@H](CN(c3cc(-c4cnn(C(C)C)c4)ccn3)C(=O)[C@H]3CC[C@H](OC(=O)N4CCN(C)CC4)CC3)CC2)cc1C [Compound 1.05, trans-4-((4-(1-Isopropyl-1H-pyrazol-4-yl)pyridin-2-yl)(((trans)-4-(6-methoxy-5-methylpyridin-3-yl)cyclohexyl)methyl)carbamoyl) cyclohexyl 4-methylpiperazine-1-carboxylate]
≤ 50 | COc1ccc([C@H]2CC[C@H](CN(c3cc(-c4coc(C(C)C)n4)ccn3)C(=O)[C@H]3CC[C@H](OC(=O)N4CC(O)C4)CC3)CC2)cc1C [Compound 2.24, trans-4-((4-(2-Isopropyloxazol-4-yl)pyridin-2-yl)(((trans)-4-(4-methoxy-3-methylphenyl)cyclohexyl)methyl)carbamoyl) cyclohexyl 3-hydroxyazetidine-1-carboxylate]
≤ 50 | COc1ccc([C@H]2CC[C@H](CN(c3cccc(-c4cnn(C(C)C)c4)c3)C(=O)[C@H]3CC[C@H](OC(=O)NC[C@H](F)CO)CC3)CC2)cc1C [Compound 5.07, trans-4-((3-(1-Isopropyl-1H-pyrazol-4-yl)phenyl)(((trans)-4-(4-methoxy-3-methylphenyl)cyclohexyl)methyl)carbamoyl)cyclohexyl ((S)-2-fluoro-3-hydroxypropyl) carbamate]
≤ 50 | COc1ccc(C23CCC(CN(c4cc(-c5cnn(C(C)C)c5)ccn4)C(=O)[C@H]4CC[C@H](OC(=O)NC5COC5)CC4)(CC2)CC3)cc1C [Compound 4.13, 4-((4-(1-Isopropyl-1H-pyrazol-4-yl)pyridin-2-yl)((4-(4-methoxy-3-methylphenyl)bicyclo [2.2.2]octan-1-yl)methyl)carbamoyl)cyclohexyl trans-oxetan-3-ylcarbamate]
≤ 50 | COc1ccc(C23CCC(CN(c4cc(-c5coc(C(C)C)n5)ccn4)C(=O)[C@H]4CC[C@H](OC(=O)N5CC(CO)C5)CC4)(CC2)CC3)cc1C [Compound 23.01, 4-((4-(2-Isopropyloxazol-4-yl)pyridin-2-yl)((4-(4-methoxy-3-methylphenyl)bicyclo[2.2.2]octan-1-yl)methyl)carbamoyl)(trans-cyclohexyl) 3-(hydroxymethyl)azetidine-1-carboxylate]
≤ 50 | COc1ccc(C23CCC(CN(c4cc(-c5cnc(C(C)C)s5)ccn4)C(=O)[C@H]4CC[C@H](OC(=O)NC5COC5)CC4)(CC2)CC3)cc1C [Compound 4.35, 4-((4-(2-Isopropylthiazol-5-yl)pyridin-2-yl)((4-(4-methoxy-3-methylphenyl)bicyclo[2.2.2]octan-1-yl)methyl)carbamoyl)(trans-cyclohexyl) oxetan-3-ylcarbamate]
